In patent EP4741383A1, “COMPOUND AND USE THEREOF AS ANTI-CANCER DRUG” (Tyligand Bioscience (Shanghai) Limited, priority 2023, dated 2025):

These compounds were tested against T1, hERG potassium channel (Homo sapiens, UniProt Q12809) (assay: hERG manual patch-clamp assay in HEK-293 cells). Settings: HEK-293 cells stably expressing the hERG potassium channel, HEK-293 cells stably expressing hERG.
T1 construct: host or cells: HEK-293
Assay type: cell-based
From the text: This experiment was a non-GLP trial conducted with reference to GLP guidelines and in accordance with the following technical guidelines: National Medical Products Administration: Technical Guidelines for Non-Clinical Studies of Potential Effects of Drugs on QT Interval Prolongation (2014), and ICH S7B Guidelines for Non-Clinical Evaluation of Potential Drug-Induced Delayed Ventricular Repolarization (QT Interval Prolongation) in Humans (2005).
Sample preparation: the weighed test substance was prepared into a 5 mM or 10 mM stock solution with DMSO, then diluted with DMSO to a 3.33 mM diluent. The stock solution was then diluted with extracellular fluid to prepare a 10 µM working solution, ensuring a DMSO concentration of 0.3%. The solution was sonicated for 20 min. The solubility of the test sample was visually inspected; all concentrations dissolved completely without any visible precipitate.
Preparation of positive control: 3.99 mg Cisapride (positive control) was prepared into a 10 mM stock solution using 807.96 µL DMSO. This stock solution was then successively diluted with DMSO to 1000, 333.33, 33.33, 3.33, and 0.33 µM dilutions. Before testing, 30 µL of each of the last four dilutions was added to 10 mL of extracellular fluid, ensuring a DMSO concentration of 0.3%. The final working solution concentrations of Cisapride were 1000, 100, 10, and 1 nM. Cisapride was visually inspected for solubility; all concentrations dissolved completely without any visible precipitate.
The blank control stock solution (DMSO) should be stored at room temperature. The blank control working solution should be prepared on the same day and stored at room temperature. The test substance and positive control stock solutions should be stored at -20 °C. […]
The hERG activity of the representative compounds of this disclosure was detected using conventional manual patch-clamp techniques in the art (Patch-Clamp Methods and Protocols, 2014, 2nd edition, Humana Press, edited by Marzia Martina and Stefano Taverna).

T1 sequence (Q12809 whole entry): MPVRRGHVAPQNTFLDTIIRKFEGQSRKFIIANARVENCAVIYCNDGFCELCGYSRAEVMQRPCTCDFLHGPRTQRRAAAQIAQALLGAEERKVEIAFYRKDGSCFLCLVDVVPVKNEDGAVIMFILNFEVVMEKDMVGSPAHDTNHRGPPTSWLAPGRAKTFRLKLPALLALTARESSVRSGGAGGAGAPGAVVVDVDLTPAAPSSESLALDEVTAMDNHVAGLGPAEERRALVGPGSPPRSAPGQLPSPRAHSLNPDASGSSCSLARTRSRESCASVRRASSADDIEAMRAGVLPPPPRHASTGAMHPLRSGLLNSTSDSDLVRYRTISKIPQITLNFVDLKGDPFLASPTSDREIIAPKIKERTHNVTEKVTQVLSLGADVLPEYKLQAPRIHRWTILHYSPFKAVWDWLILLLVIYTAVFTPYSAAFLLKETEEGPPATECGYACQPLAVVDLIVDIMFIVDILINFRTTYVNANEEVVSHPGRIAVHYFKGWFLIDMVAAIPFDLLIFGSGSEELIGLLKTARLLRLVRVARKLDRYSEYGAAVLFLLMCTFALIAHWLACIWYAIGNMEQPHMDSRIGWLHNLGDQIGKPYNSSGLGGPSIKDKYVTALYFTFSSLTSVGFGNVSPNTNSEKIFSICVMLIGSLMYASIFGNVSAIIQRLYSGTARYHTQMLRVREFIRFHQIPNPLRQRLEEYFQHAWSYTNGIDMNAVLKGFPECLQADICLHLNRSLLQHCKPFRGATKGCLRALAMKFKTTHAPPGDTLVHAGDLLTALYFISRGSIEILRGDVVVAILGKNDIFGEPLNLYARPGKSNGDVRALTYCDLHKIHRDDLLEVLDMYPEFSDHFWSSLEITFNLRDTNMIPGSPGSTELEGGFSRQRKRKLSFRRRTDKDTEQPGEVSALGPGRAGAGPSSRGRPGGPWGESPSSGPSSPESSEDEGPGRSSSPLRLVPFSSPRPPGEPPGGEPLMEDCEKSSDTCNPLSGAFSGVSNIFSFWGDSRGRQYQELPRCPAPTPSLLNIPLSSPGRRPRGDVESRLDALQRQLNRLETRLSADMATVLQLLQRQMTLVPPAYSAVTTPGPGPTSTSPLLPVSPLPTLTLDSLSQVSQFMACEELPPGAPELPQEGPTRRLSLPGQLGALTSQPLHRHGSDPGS

Question: For O=C(Nc1ccc(-c2cc3cc(F)c(-c4nnn[nH]4)cc3n2C2CCC2)cc1)C(=O)Nc1ccc(N2CCC(CO)CC2)cc1 [Example 23], which inhibition at 10 µM is on record?
Answer: The inhibition at 10 µM was -0.72%.

Question: CC1(n2c(-c3ccc(NC(=O)C(=O)Nc4ccc(N5CCC6(CCOC6)CC5)cc4)cc3)cc3cc(F)c(-c4nnn[nH]4)cc32)CCC1 [Example 68] was tested. Which inhibition at 10 µM did it give?
Answer: The inhibition at 10 µM was 8.79%.

Question: How did the inhibition at 10 µM turn out when O=C(Nc1ccc(-c2cc3cc(F)c(-c4nnn[nH]4)cc3n2C2CCC2)cc1)C(=O)Nc1ccc(N2CCC3(CCOC3)CC2)cc1 [Example 67] was run?
Answer: The inhibition at 10 µM was 16.9%.
